Assay results reported in publication PMC7334220, “Diamond Blackfan anemia is mediated by hyperactive Nemo-like kinase” (Nature Communications, 2020).

Assays:
[1] = authors' statement in rebuttal, no data or reference; cited from earlier work
DBA patient HSPCs = test: Erythroid differentiation (CD235+) of CD34+ HSPCs from DBA patient bone marrow; assay type: cell-based, human; conditions: 5 µM SD208; three DBA patients
Description: Cells were counted and assessed for cell surface expression of CD235. b Lin-Kit^+ hematopoietic progenitors were obtained from three mouse embryos expressing tetracycline-inducible shRNA against RPS19 at day E14.5 or three untreated mice, and thee mature RPL11^+/+ or three mature RPL11^+/lox mice treated with tamoxifen for eight weeks. […] Values were expressed as a percentage relative to untreated controls. c, d Intracellular phosphorylation of NLK at Thr298 was determined by capillary electrophoresis using the Peggy Sue™ Automated Western blotting platform. After lysis, 4 µg of protein from the CD235^+ population was probed against pThr298-NLK and normalized to GAPDH. […] After counting the total cell population, the ratio of CD235^+ erythroblasts was determined by flow cytometry and number of CD235^+ erythroblasts calculated. This was expressed as a percentage of the average number of erythroid cells present in untreated healthy controls. f NLK phosphorylation was assessed by capillary electrophoresis as above. Bars represent means ± SD with individual data points overlaid. […] Statistics: two-tailed Student’s t test, significant *p < 0.05. Also see Supplementary Fig. 8. Source data are provided as a Source Data file. […]

[2] = system: ribosome-competent cord blood CD34+ HSPCs (shLuc); test: In vitro differentiation of cord blood CD34+ HSPCs transduced with control shRNA (luciferase); assay type: cell-based, human
Description: Lin-Kit^+ fetal liver cells were obtained from mouse embryos expressing tet-on shRNA against RPS19, at day E14.5-15.5. Cells were plated at 2000 cell per well in 96-well plates in the presence or absence of doxycycline. Relative amounts of live cells were quantified by luciferase-based Cell titer-Glo® assay. b TGFβR1 inhibitors were assessed for their ability to increase cell expansion in RPS19-insuffiency. As a control, vehicle alone (no doxycycline) is represented at the far left while all other samples were treated with doxycycline to induce RPS19-insufficiency. c Kit^+ erythroid progenitors were grown in the absence of doxycycline and in the presence of 10 µM of indicated compound. In addition, cells were treated with 5 ng/ml of TGFβ1 for 5 days before being subjected to Cell titer-Glo® assay. d Differentiating cord blood CD34^+ progenitors were transduced with shRNA against luciferase or RPS19 and treated with inhibitors at working concentrations for TGFβ inhibition every three days. […] Cells were counted and CD235^+ erythroid (i and iii) and CD11b^+ myeloid cell (ii and iv) percentages were determined by flow cytometry. The number of erythroid or myeloid cells is expressed as a percentage of the number of that lineage with no cytokine or drug treatment. […]
Fig. 8 NLK inhibition increases expansion of erythroid progenitors from human and murine models of DBA. a Human cord blood CD34^+ progenitors were transduced with lentivirus co-expressing GFP with shRNA against luciferase (shLuc), RPS19 (shRPS19), or RPL11 (shRPL11). […] Cells were counted and assessed for cell surface expression of CD235. b Lin-Kit^+ hematopoietic progenitors were obtained from three mouse embryos expressing tetracycline-inducible shRNA against RPS19 at day E14.5 or three untreated mice, and thee mature RPL11^+/+ or three mature RPL11^+/lox mice treated with tamoxifen for eight weeks. […] Values were expressed as a percentage relative to untreated controls. c, d Intracellular phosphorylation of NLK at Thr298 was determined by capillary electrophoresis using the Peggy Sue™ Automated Western blotting platform. […]

## Fc1ccc(Cl)cc1-c1nc(Nc2ccncc2)c2nccnc2n1 [SD208]
[1]
  solubility: poor
DBA patient HSPCs
  mean increase of CD235+ erythroblast differentiation with SD208: 2.11 fold
[2]; Homo sapiens, 360 h, read-out: erythroid expansion of HSPCs transduced with control shRNA, % of control
  activity at 5 µM: ~105%
[2]; ribosome-competent cells, 5 ng/ml TGFβ1, 5 µM compound, 15 days, Fig. 1e
  restoration of erythroid and myeloid expansion of TGFβ-treated cells: restored
